The values below come from article PMC2790889 (Nucleic Acids Research, 2009).

Where two headings read alike, the source gives them in different places.

In one assay the test system is TrmFO. Particulars: cited from earlier work.
For assay [1], the target named is T1, GidA (Escherichia coli, UniProt P0A6U3).
T1 sequence (P0A6U3 1-629): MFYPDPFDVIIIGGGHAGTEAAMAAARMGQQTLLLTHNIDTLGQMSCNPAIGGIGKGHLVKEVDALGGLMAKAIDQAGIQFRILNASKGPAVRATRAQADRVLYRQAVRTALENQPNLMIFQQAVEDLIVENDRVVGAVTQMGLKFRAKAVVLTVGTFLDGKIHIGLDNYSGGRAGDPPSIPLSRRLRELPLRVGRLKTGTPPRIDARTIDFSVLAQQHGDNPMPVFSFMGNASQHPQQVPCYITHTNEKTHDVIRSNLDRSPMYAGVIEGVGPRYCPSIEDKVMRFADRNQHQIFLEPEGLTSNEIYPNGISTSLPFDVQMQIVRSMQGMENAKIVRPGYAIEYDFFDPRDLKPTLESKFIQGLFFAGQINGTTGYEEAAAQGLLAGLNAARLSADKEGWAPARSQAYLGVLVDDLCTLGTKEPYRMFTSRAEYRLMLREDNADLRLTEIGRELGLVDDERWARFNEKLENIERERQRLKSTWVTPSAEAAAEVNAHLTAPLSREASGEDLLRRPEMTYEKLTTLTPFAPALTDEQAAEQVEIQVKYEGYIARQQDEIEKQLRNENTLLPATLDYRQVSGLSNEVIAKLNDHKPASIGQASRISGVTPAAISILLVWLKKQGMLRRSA
Particulars: read-out: Kd (affinity of GidA for NADH); cited from earlier work.

Assay [2] has as its target T1, GidA. The assay is described as follows: Affinity of GidA for FAD and NADH. Type of assay: binding.

For the compound (6S) THF, the “concentrations of THF that inhibit the methylene-THF-dependent activity of TrmFO” value with TrmFO is recorded as “higher than 2 µM”.

Regarding `NC(=O)C1=CN([C@@H]2O[C@H](COP(=O)(O)OP(=O)(O)OC[C@H]3O[C@@H](n4cnc5c(N)ncnc54)[C@H](O)[C@@H]3O)[C@@H](O)[C@H]2O)C=CC1` [NADH], the Kd – broadly, the constant that tells how readily two partners part at equilibrium – on GidA [1] is about 11 µM. For the compound `Cc1cc2nc3c(=O)[nH]c(=O)nc-3n(C[C@H](O)[C@H](O)[C@H](O)COP(=O)(O)OP(=O)(O)OC[C@H]3O[C@@H](n4cnc5c(N)ncnc54)[C@H](O)[C@@H]3O)c2cc1C` [FAD], the equilibrium dissociation constant (Kd) on GidA [2] is about 3 µM.
